Entries after “also recorded” stand apart in the source; their conditions may differ.
Key:
CD34^+ cells = test: Whole genome expression arrays (Affymetrix GeneChip); assay type: cell-based, human
Method: Human umbilical cord blood and pre-isolated CD34^+ cells from human umbilical cord blood were purchased from Stem Cell Technologies Inc. (Vancouver, BC, Canada). Cells were incubated in either low molecular weight dextran with 5% human serum albumin media (LMD/5% HSA) or Stem Span media (Stem Cells Technology Inc.) for ex vivo treatment with 16,16-dimethyl PGE2. Total RNA was isolated from incubated cells using a Pico Pure RNA Isolation Kit (Molecular Devices, Sunnyvale, Calif.).
Biotinylated amplified RNA (aRNA) was prepared using the standard protocol for MessageAmp II aRNA Amplification Kit (Applied Biosystems/Ambion, Austin, Tex.) and the optional Second Round Amplification; the copy RNA (cRNA) was transcribed into biotin labeled aRNA using MessageAmp II Biotin Enhanced Kit (Applied Biosystems/Ambion, Austin, Tex.) according to the manufacturer's instructions. Biotin labeled aRNA was purified and fragmented according to the Applied Biosystems protocols. 20 μg of fragmented aRNA was hybridized to Human Genome U133 Plus 2.0 GeneChips (Affymetrix Inc., Santa Clara, Calif.) for 16 hrs at 45° C.
The GeneChips were washed and stained in the Affymetrix Fluidics Station 450 and scanned using the Affymetrix GeneChip Scanner 3000 7G. The image data were analyzed using Affymetrix Expression Console software and default analysis settings. GeneChip expression data were normalized by log scale robust multi-array analysis (RMA) and visualized in Spotfire for Genomics 3.1 (Tibco Spotfire, Palo Alto, Calif.). Pathway analysis was performed in MetaCore. (GeneGo, St. Joseph, Mich.).
GeneChip technology was used to determine the effects of time (incubation for 5, 15, 20, 30, 40, 60, 80, 100, 120, 180, or 240 minutes), temperature (incubation at 4° C., 25° C., or 37° C.), and final 16,16-dimethyl PGE2 concentration (0.1 μm, 1 μM, 10 μM, 50 μM, or 100 μM) on cellular gene expression.
Gene expression profiles were analyzed for CD34^+ cells incubated with 10 μM 16,16-dimethyl PGE2 at 37° C. for 5, 15, 30, 60, or 120 minutes. For incubation (e.g., treatment) periods less than 120 minutes, the cells were washed in media to remove the 16,16-dimethyl PGE2 and then the cells were incubated for the remaining period in media to allow time for changes in gene expression to take place (See FIG. 5).

[1] = tested on: Whole cord blood cells or CD34^+ cells; test: Colony Forming Unit-Cell assay (CFU-C); assay type: cell-based, human
Method: Colony Forming Unit-Cell assays (CFU-C) were performed using a methyl cellulose assay kit, MethoCult® GF H4034 (Stem Cell Technologies, Vancouver, CA). Whole cord blood cells or CD34^+ cells obtained from Stem Cell Technologies (Vancouver, Canada) were aliquoted equally in Eppendorf tubes and treated ex vivo at a range of 16,16-dimethyl PGE2 concentrations (10 μM to 100 μM) or DMSO control; temperatures (4° C., 22° C., or 37° C.) for 120 minutes in LMD/5% HSA media. After treatment, the cells were washed in LMD/5% HSA media and resuspended in Iscove's Media containing 2% Fetal Bovine Serum (FBS) (Stem Cell Technologies). Cells were then loaded into a MethoCult® assay tube, mixed, and plated in 35 mm tissue culture plates according to the manufacturer's instructions. Unless otherwise mentioned, the equivalent of 10,000 WCB cells and 250 CD34^+ cells were loaded into each plate.

[2] = tested on: Murine whole bone marrow (WBM) cells; test: Colony forming Unit Spleen at day 12 (CFU-S12) assay; assay type: in vivo, C57Bl/6 mice; conditions: 10 μM; for CFU-S12 number: WBM
Method: Colony forming Unit Spleen at day 12 (CFU-S12) assays were performed as described in North et al., Nature. 2007 Jun. 21; 447(7147):1007-11. […] After treatment, the cells were washed by centrifugation and resuspended in PBS for tail-vein injection into C57Bl/6 recipients (2×5/treatment) that had been previously lethally irradiated at 10.5Gy. 50,000 cells were injected per recipient. […]

[3] = tested on: human CD34^+ cord blood (hCD34^+ CB) cells; test: In vitro chemotaxis assay towards SDF1α; assay type: cell-based; conditions: 10 μM, 4 hours, 37° C.; 50 ng/ml SDF1α vs DMSO or 0 ng/ml SDF1α
Method: Chemotaxis assays were performed using 96-well chemotaxis chambers, […] pore size polycarbonate membrane (Corning Inc., Corning, N.Y.) in accordance with manufacturer's instructions. Briefly, human CD34^+ cord blood (hCD34^+ CB) cells were obtained from All Cells and were thawed according to manufacturer's instruction. The cells were then treated for 4 hours at 37° C. with 16,16-dimethyl PGE2 or DMSO control at a concentration of 10 μM in StemSpan media (Stem Cell Technology, Vancouver, Canada). The cells were then washed by centrifugation (300 g for 10 minutes) and resuspended in transwell assay buffer (Phenol Red Free RPMI media (Mediatech), 0.5% lipid free BSA (Sigma-Aldrich) at a concentration of 40,000-60,000 cells/75 ul. Seventy-five μl of cell suspension was added to the upper chamber of the plate, while 235 μl of transwell assay media containing 0 or 50 ng/ml SDF1α (R&D system, Minneapolis, Minn.) was added to the bottom well. Total cell number in the lower well was obtained by flow cytometry, using 7AAD (BD Biosciences) to exclude dead cells, after 4 hours of incubation at 37° C., 5% CO2. […] Percent migration was calculated by dividing the number of the cells in the lower well by the total cell input multiplied by 100. Samples were analyzed in triplicate, the data was then averaged for statistical analysis.

CCCCC(C)(C)[C@H](O)/C=C/[C@H]1[C@H](O)CC(=O)[C@@H]1C/C=C\CCCC(=O)O [16,16-dimethyl PGE2]
signature gene expression changes after very short incubation (CD34^+ cells; 10 μM, 37° C., 5-15 minutes, assessed after 120 minutes total): minimal gene expression changes | incubation time after which gene expression changes were apparent (CD34^+ cells; 10 μM, 37° C., assessed after 120 minutes total): 30 min | genes downregulated (CD34^+ cells; 10 μM, 120 minutes, 37° C.): 243 genes | genes modulated at a statistically significant level, total (CD34^+ cells; 10 μM, 120 minutes, 37° C.): 608 genes | genes upregulated (CD34^+ cells; 10 μM, 120 minutes, 37° C.): 365 genes | fold increase in CXCR4 expression (CD34^+ cells; 10 μM, 120 minutes, 37° C., relative to DMSO/vehicle treated control): 18 fold | fold increase in CREM expression (FIG. 4) (CD34^+ cells; 10 μM, vs vehicle treated CD34+ cells): 8 fold | Fold change (increases) AREG (CD34^+ cells; Amphiregulin, CD34+ cells, 10 μM, 120 minutes, 37° C. vs DMSO): 23.32 fold | gene expression changes at 100 μM at 4° C. and 25° C. compared with 10 μM at 37° C. (CD34^+ cells; CD34+ cells): smaller gene expression changes | gene expression associated with apoptosis or cell death (CD34^+ cells; CD34+ cells incubated at 37° C.): no increase in gene expression associated with apoptosis or cell death; also recorded: no increase in gene expression of apopotosis or cell death associated genes | concentration at which the full gene expression signature was reproduced (CD34^+ cells; CD34+ cells, 120 minutes, 37° C., no further substantial changes above): 10 µM | Fold change (increases) CXCR4 (CD34^+ cells; CXC chemokine Receptor 4, CD34+ cells, 10 μM, 120 minutes, 37° C. vs DMSO): 7.33 fold | Fold change (increases) DUSP4 (CD34^+ cells; Dual specificity protein phosphatase 4, CD34+ cells, 10 μM, 120 minutes, 37° C. vs DMSO): 25.75 fold | Fold change (increases) FOSL2 (CD34^+ cells; Fos-related antigen 2, CD34+ cells, 10 μM, 120 minutes, 37° C. vs DMSO): 8.11 fold | Fold change (increases) GEM (CD34^+ cells; GTP-binding protein GEM, CD34+ cells, 10 μM, 120 minutes, 37° C. vs DMSO): 28.18 fold | Fold change (increases) HAS1 (CD34^+ cells; Hyaluronan synthase 1, CD34+ cells, 10 μM, 120 minutes, 37° C. vs DMSO): 55.83 fold | Fold change (increases) NR4A2 (CD34^+ cells; Nuclear receptor related 1 protein, CD34+ cells, 10 μM, 120 minutes, 37° C. vs DMSO): 22.30 fold | Fold change (increases) REN (CD34^+ cells; Renin, CD34+ cells, 10 μM, 120 minutes, 37° C. vs DMSO): 19.50 fold | CXCR4 RNA expression (CD34^+ cells; WCB or CD34+ cells, 10 μM, 2 hours, 37° C. vs DMSO or 10 μM 1 hour 4° C.): increase in CXCR4 RNA expression | Fold change (increases) CREM (CD34^+ cells; cAMP-responsive element modulator, CD34+ cells, 10 μM, 120 minutes, 37° C. vs DMSO): 12.90 fold | Fold change (increases) COL1A1 (CD34^+ cells; collagen, type I, alpha 1, CD34+ cells, 10 μM, 120 minutes, 37° C. vs DMSO): 10.50 fold | CFU-C colony formation (FIG. 19D) ([1]; CD34+ cells treated at 37° C. vs DMSO or 4° C.): increase in CFU-C colony formation | ability to form colony forming units (FIG. 11) ([1]; CD34+ cells, 10 μM, 120 minutes, 37° C. vs vehicle or 4° C.): does not decrease the ability of the cells to form colony forming units | proliferative potential (CFU-C) ([1]; whole cord blood cells or CD34+ cells, high temperatures, relatively long incubation periods vs other conditions): higher proliferative potential | number of hematopoietic progenitor cells (FIG. 19A) ([2]; 37° C. incubation): increases the number of hematopoietic progenitor cells | CFU-S12 number ([2]; 4° C. for 1 hour): 8.5±1.3 colonies | CFU-S12 number ([2]; 37° C. for 1 hour): 11.2±1.5 | CFU-S number compared to DMSO treated cells ([2]; murine bone marrow, 4° C. treatment): small increase in CFU-S number | number of migrating CD34+ cells [3]: significantly increased
